Test results published in PubChem BioAssay AID1918958 (Molecular Pharmacology Branch, DTP, NCI, 2023).
“And” between values parts separate entries of the source, which are not always exact repeats. Equal values may be shown once.

Test system: NCI-H196 complex spheroid viability
Experiment: Anticancer human tumor NCI-H196 cell line growth inhibition [LSD1];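 further: spheroids exposed to agents for 7 days before readout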;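 on viability, T/C: 100% = DMSO vehicle control viability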
Conditions: for viability, T/C: stronger effect = lower value; for IC50: curve of compound
Description: Multicellular complex tumor spheroid response to LSD1 Inhibitor Iadademstat in combination with a variety of drugs and investigational agents in selected tumor cell lines
The current study was undertaken to assess response to LSD1 inhibitors in combination with standard-of-care drugs and investigational agents in solid tumor complex spheroid models as well as in the K-562 leukemia. Complex spheroids include a stromal component modeled by human endothelial cells (HUVEC) and fibroblasts modeled by human mesenchymal stem cells (MSCs). The concentration ranges selected for each drug and investigational agent were based upon clinically achievable concentrations if the clinical Cmax of the agent was known.
Compounds. The drugs and investigational agents used in this study are listed on Table 1. All of the agents used, including staurosporine (NSC755774) and gemcitabine (NSC613327), were obtained from the Developmental Therapeutics Program, NCI. FDA-approved anticancer drugs are available from the NCI at http://dtp.nci.nih.gov/branches/dscb/oncology_drugset_explanation.html. Drugs and investigational agents were >95% pure by proton nuclear magnetic resonance (NMR) and liquid chromatography/mass spectrometry (LC/MS). Stock solutions were prepared at 400x in DMSO, stored at -70 degrees C, and diluted in fresh medium prior to their use. The final concentration of DMSO in cell culture wells never exceeded 0.25% (v/v). The FDA-approved anticancer drug set is available from the Developmental Therapeutics Program at https://dtp.cancer.gov/organization/dscb/obtaining/available_plates.htm. All drugs and investigational agents were tested over a range starting from a high concentration at or near the clinical Cmax and decreasing in half-log increments. If the clinical Cmax for an agent had not been determined, the highest concentration tested was 10 microM.
Cell Lines. The patient-derived cancer cell (PDC) lines: 292921-168-R-J2-PDC, K24384-001-R-PDC, and 521955-158-R2-J5-PDC pancreatic carcinomas, 556581-035-R-J1 ovarian carcinoma, 324938-238-R-J1-PDC, 855422-203-R-J1-PDC and 883617-216-R-J1-PDC urothelial bladder carcinomas, 743489-274-T-PDC renal cell carcinoma, 138582-R-J1 Merkel cell tumor, K60290-347-R-J1 and K57222-313-R-J1-PDC glioblastomas, 653999-131-R-J2-PDC, LG0703-F948-PDC, and 349418-098-R-PDC non-small cell lung carcinomas, 885512-296-R-J2-PDC, 171881-019-R-J1-PDC breast carcinomas and 186277-243-T-J2-PDC and 233499-124-R-J2-PDC colon carcinomas were obtained from the NCI Patient-Derived Models Repository (PDMR, https://pdmr.cancer.gov). The established cell lines NCI/ADR-RES (RRID:CVCL_14520 and OVCAR-5 (RRID:CVCL_1628) ovarian carcinomas, 786-O (RRID:CVCL_1051) and A498 (RRID:CVCL_A498) renal cell carcinoma, NCI-H211 (ATCC, cat. CRL-5824; RRID:CVCL_1529), NCI-H196 (ATCC, cat. CRL-5823, RRID:CVCL_1509), SW 1271 (ATCC, cat. CRL-2177, RRID:CVCL_1716) and NCI-H1876 (ATCC, cat. CRL-5902, RRID:CVCL_1503) small cell lung carcinomas, MDA-MB-231 (RRID:CVCL_0062) and MDA-MB-468 (RRID:CVCL_0419)breast carcinomas (10-12). Pooled donor human umbilical vein endothelial cells (HUVEC, Lonza, cat. CC-2519) and human mesenchymal stem cells (hMSC, Lonza, cat. PT-2501) were purchased from Lonza (Walkersville, MD).
Cell Culture. All cells were maintained in an incubator at 37 degrees C and 5% CO2 with 95% humidity. The PDC lines were cultured according to standard operating procedures established by the NCI PDMR (https://pdmr.cancer.gov). Briefly all PDCs were thawed and cultured in Matrigel-coated flasks prepared with a working solution of 1X Ham's F-12 nutrient mix, without supplementation (Invitrogen, Waltham, MA, cat. 11765054), 100 U/mL penicillin-streptomycin (Invitrogen, cat. 15140122), and 2.5% Matrigel (Corning Inc., Corning, NY, cat. 354248) for the first three passages. […]

SMILES	IC50	viability, T/C (compound 0.000316 µM)	viability, T/C (compound 0.001 µM)	viability, T/C (compound 0.00316 µM)	viability, T/C (compound 0.01 µM)	viability, T/C (compound 0.0316 µM)	viability, T/C (compound 0.1 µM)	viability, T/C (compound 0.316 µM)	viability, T/C (compound 1 µM)	viability, T/C (compound 3.16 µM)	viability, T/C (compound 10 µM)	viability, T/C (compound 0.00949 µM)	viability, T/C (compound 0.03 µM)	viability, T/C (compound 0.0949 µM)	viability, T/C (compound 0.3 µM)	viability, T/C (compound 0.949 µM)	viability, T/C (compound 3 µM)	viability, T/C (compound 0.000949 µM)	viability, T/C (compound 0.003 µM)
CC(C)CC(NC(=O)C(Cc1ccccc1)NC(=O)c1cnccn1)B(O)O (configuration not stated)	0.531 nM and 0.44 nM	86.3% and 68.7%	5.76% and 3.52%	4.42% and 2.33%	2.79% and 2.47%	2.25% and 1.91%	0.92% and 0.81%	–	–	–	–	–	–	–	–	–	–	–	–
CC(C)CC(NC(=O)CNC(=O)c1cc(Cl)ccc1Cl)B1OC(=O)CC(CC(=O)O)(C(=O)O)O1 (configuration not stated)	22 nM and 12.6 nM	108% and 104%	113% and 107%	103% and 92%	83.3% and 57.1%	34.6% and 20.3%	6.61% and 4.84%	–	–	–	–	–	–	–	–	–	–	–	–
CC(C)c1c(-c2ccccc2)nc2c(C#N)c[nH]n2c1=O	> 10000 nM	–	–	–	–	107% and 96.4%	108% and 100%	98.3% and 93.8%	101% and 91%	99.7% and 94.1%	88.7% and 84.2%	–	–	–	–	–	–	–	–
CC1(C)CCC(CN2CCN(c3ccc(C(=O)NS(=O)(=O)c4ccc(NCC5CCOCC5)c([N+](=O)[O-])c4)c(Oc4cnc5[nH]ccc5c4)c3)CC2)=C(c2ccc(Cl)cc2)C1	5620 nM and 6290 nM	–	–	–	–	99.4% and 101%	104% and 99.2%	94.9% and 98.7%	103% and 93.7%	86.4% and 94.3%	13% and 20.1%	–	–	–	–	–	–	–	–
COc1cc(C2c3cc4c(cc3C(OC3OC5COC(C)OC5C(O)C3O)C3COC(=O)C23)OCO4)cc(OC)c1O (configuration not stated)	> 3000 nM	–	–	–	–	–	–	–	–	–	–	98.3% and 98.5%	99.7% and 101%	98.6% and 112%	108% and 112%	90.5% and 81.5%	65.7% and 59.9%	–	–
COc1cc(Nc2ncc3c(n2)-c2ccc(Cl)cc2C(c2c(F)cccc2OC)=NC3)ccc1C(=O)O	> 1000 nM	–	–	96.3% and 91.4%	103% and 105%	114% and 99.4%	119% and 109%	132% and 120%	118% and 121%	–	–	–	–	–	–	–	–	–	–

Further lines, with some results ahead:

IC50	SMILES	viability, T/C (compound 0.000316 µM)	viability, T/C (compound 0.001 µM)	viability, T/C (compound 0.00316 µM)	viability, T/C (compound 0.01 µM)	viability, T/C (compound 0.0316 µM)	viability, T/C (compound 0.1 µM)	viability, T/C (compound 0.316 µM)	viability, T/C (compound 1 µM)	viability, T/C (compound 3.16 µM)	viability, T/C (compound 10 µM)	viability, T/C (compound 0.00949 µM)	viability, T/C (compound 0.03 µM)	viability, T/C (compound 0.0949 µM)	viability, T/C (compound 0.3 µM)	viability, T/C (compound 0.949 µM)	viability, T/C (compound 3 µM)	viability, T/C (compound 0.000949 µM)	viability, T/C (compound 0.003 µM)
724 nM and 543 nM	CC1COCCN1c1cc(-c2ccnn2C)c2ccnc(-c3ccn[nH]3)c2n1 (configuration not stated)	–	–	77.7% and 75.2%	77.9% and 70%	64.6% and 70%	65.4% and 57.1%	55.8% and 53.1%	47.5% and 46.9%	–	–	–	–	–	–	–	–	–	–
> 10000 nM	CC1COCCN1c1cc(C2(S(C)(=N)=O)CC2)nc(-c2ccnc3[nH]ccc23)n1 (configuration not stated)	–	–	–	–	96.2% and 97.2%	100% and 94.8%	91.8% and 98.8%	84.6% and 84.2%	77.8% and 76.2%	72.7% and 74.6%	–	–	–	–	–	–	–	–
> 3000 nM	CCN(c1cc(-c2ccc(CN3CCOCC3)cc2)cc(C(=O)NCc2c(C)cc(C)[nH]c2=O)c1C)C1CCOCC1	–	–	–	–	–	–	–	–	–	–	95.5% and 97.5%	103% and 95.3%	92.9% and 110%	93.9% and 107%	101% and 113%	108% and 100%	–	–
> 100 nM	CC[C@@]1(O)C(=O)OCc2c1cc1n(c2=O)Cc2cc3c(CN(C)C)c(O)ccc3nc2-1	98.3% and 97.6%	99% and 93.1%	95.1% and 99.2%	109% and 97.3%	110% and 115%	106% and 102%	–	–	–	–	–	–	–	–	–	–	–	–
10.1 nM and 8.88 nM	CCc1c2c(nc3ccc(O)cc13)-c1cc3c(c(=O)n1C2)COC(=O)[C@]3(O)CC	–	–	–	–	–	–	–	–	–	–	52.9% and 47.5%	2.96% and 3.28%	1.29% and 0.86%	1.52% and 0.88%	–	–	99.5% and 104%	103% and 96.6%
